Our source for the IC50 and CC50 values is patent publication US20230286968A1, “ARYLOXAZOLO SPIRAL RING DERIVATIVES FOR THE TREATMENT AND PROPHYLAXIS OF HEPATITIS B VIRUS INFECTION” (Hoffmann-La Roche Inc., priority 2020, published 2023).

One series has as its system HBsAg. Kind of series: PHH natural infection assay, HBsAg (alphalisa). Type of series: cell-based, HBV. The following applies: Hepatitis B virus, Hepatocyte, read-out: HBsAg IC50, HBV-infected primary human hepatocytes, supernatant, alphalisa. Put shortly:
(§1)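 Cryopreserved PHH plated 24 h, infected with HBV at 200 GE/cell plus 4% PEG8000 for 24 h, then sandwich-cultured 72 h with 0.25 mg/mL matrix gel. Compounds at varied concentrations applied twice at 72-h intervals. Supernatant HBsAg and HBeAg measured by AlphaLISA with specific antibodies.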
For orientation: In Alpha technology, singlet oxygen from a donor bead excites a nearby acceptor bead.

A further series deals with HBeAg. Kind of series: PHH natural infection assay, HBeAg (alphalisa). To be noted: Hepatitis B virus, Hepatocyte, read-out: HBeAg IC50, HBV-infected primary human hepatocytes, supernatant, alphalisa. Type of series: cell-based, HBV. Put shortly:
as §1

Series [1] is described as follows: Cytotoxicity in PHH natural infection assay (Cell Counting Kit-8). Type of series: cell-based. The following applies: HBV-infected primary human hepatocytes, CCK8. Put shortly:
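HBV-infected primary human hepatocytes (200 GE/cell, 4% PEG8000, 24 h), sandwich-cultured 72 h, then given compound-containing medium twice at 72 h intervals. Cytotoxicity read by CCK-8 at end of treatment.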
For orientation: Formazan colour is commonly taken as a measure of viable cells.

Structures are written as SMILES. Some results are limits rather than exact numbers.

In the case of `O=C(NC1CC2(C1)CC(c1nc3cc(Cl)ccc3o1)C2)C1CCN(C(=O)C2CCC2)C1` (stereo not drawn) [Example 75, N-[6-(5-chloro-1,3-benzoxazol-2-yl)spiro[3.3]heptan-2-yl]-1-(cyclobutanecarbonyl)pyrrolidine-3-carboxamide], the half-inhibitory concentration (IC50) (commonly the concentration at which inhibition is half-maximal) is 9.58 µM in the series with HBsAg and 8.96 µM in the series on HBeAg. Also, in series [1], the CC50 – broadly, the concentration that lowers cell viability or growth by half – at 144 h is more than 10 µM.

Turning to `Cc1ccc(S(=O)(=O)N2CCC(CC(=O)NC3CC4(C3)CC(c3nc5cc(Cl)ccc5o3)C4)C2)cc1` (stereo not drawn) [Example 76, N-[6-(5-chloro-1,3-benzoxazol-2-yl)spiro[3.3]heptan-2-yl]-2-[1-(p-tolylsulfonyl)pyrrolidin-3-yl]acetamide], the values for the IC50 with HBsAg and in the series with HBeAg were 2.89 µM and 4 µM, respectively. This compound also gave a CC50 at 144 h in series [1] of more than 10 µM.

Take `CS(=O)(=O)N1CC(CC(=O)NC2CC3(C2)CC(c2nc4cc(Cl)ccc4o2)C3)C1` (stereo not drawn) [Example 77, N-[6-(5-chloro-1,3-benzoxazol-2-yl)spiro[3.3]heptan-2-yl]-2-(1-methylsulfonylazetidin-3-yl)acetamide]: the IC50 stood at 7.08 µM in the series on HBsAg and 4.35 µM in the series with HBeAg. In series [1], this compound displayed a CC50 at 144 h of more than 10 µM.

As for `Cc1ccc(S(=O)(=O)N2CC(CC(=O)NC3CC4(C3)CC(c3nc5cc(Cl)ccc5o3)C4)C2)cc1` (stereo not drawn) [Example 78, N-[6-(5-chloro-1,3-benzoxazol-2-yl)spiro[3.3]heptan-2-yl]-2-[1-(p-tolylsulfonyl)azetidin-3-yl]acetamide], the IC50 amounted to 4.77 µM in the series with HBsAg and 4.37 µM in the series with HBeAg. The compound also had a CC50 at 144 h in series [1] of more than 10 µM.

As for `CS(=O)(=O)N1CCC(CC(=O)NC2CC3(C2)CC(c2nc4cc(Cl)ccc4o2)C3)CC1` (stereo not drawn) [Example 79, N-[6-(5-chloro-1,3-benzoxazol-2-yl)spiro[3.3]heptan-2-yl]-2-(1-methylsulfonyl-4-piperidyl)acetamide], the 50% inhibitory concentration (IC50) was 6.72 µM in the series with HBsAg and 3.6 µM in the series on HBeAg. For the same compound, the CC50 at 144 h in series [1] was more than 10 µM.

With `Cc1ccc(S(=O)(=O)N2CCC(CC(=O)NC3CC4(C3)CC(c3nc5cc(Cl)ccc5o3)C4)CC2)cc1` (stereo not drawn) [Example 80, N-[6-(5-chloro-1,3-benzoxazol-2-yl)spiro[3.3]heptan-2-yl]-2-[1-(p-tolylsulfonyl)-4-piperidyl]acetamide], the IC50 in the series with HBsAg stood at 3.64 µM; with HBeAg, 3.93 µM. The same compound displayed a CC50 at 144 h in series [1] of more than 10 µM.

Turning to `O=C(CCCS(=O)(=O)NC(=O)C1CCC1)NC1CC2(C1)CC(c1nc3cc(Cl)ccc3o1)C2` (stereo not drawn) [Example 81, N-[4-[[6-(5-chloro-1,3-benzoxazol-2-yl)spiro[3.3]heptan-2-yl]amino]-4-oxo-butyl]sulfonylcyclobutanecarboxamide], the IC50 was determined as 4.6 µM in the series with HBsAg and 6.06 µM with HBeAg. Moreover, in series [1], the 50% cytotoxic concentration (CC50) at 144 h is more than 10 µM.

In the case of `O=C(NC1CC2(C1)CC(c1nc3cc(Cl)ccc3o1)C2)c1ccnc(S(=O)(=O)C2CC2)c1` (stereo not drawn) [Example 83, N-[6-(5-chloro-1,3-benzoxazol-2-yl)spiro[3.3]heptan-2-yl]-2-cyclopropylsulfonyl-pyridine-4-carboxamide], the figures for the 50% inhibitory concentration (IC50) in the series with HBsAg and in the series with HBeAg were 0.14 µM and 0.05 µM, respectively. In series [1], this compound yielded a CC50 at 144 h of 90.5 µM.

As to `O=C(NC1CC2(C1)CC(c1nc3cc(Cl)cnc3o1)C2)c1ccnc(S(=O)(=O)C2CC2)c1` (stereo not drawn) [Example 85, N-[6-(6-chlorooxazolo[5,4-b]pyridin-2-yl)spiro[3.3]heptan-2-yl]-2-cyclopropylsulfonyl-pyridine-4-carboxamide], the IC50 with HBsAg worked out at 0.81 µM; in the series on HBeAg it was 0.73 µM. Also, the CC50 at 144 h in series [1] is more than 10 µM.

`N=S(=O)(c1cc(C(=O)NC2CC3(C2)CC(c2nc4cc(Cl)ccc4o2)C3)ccn1)C1CC1` (stereo not drawn) [Example 86, N-[6-(5-chloro-1,3-benzoxazol-2-yl)spiro[3.3]heptan-2-yl]-2-(cyclopropylsulfonimidoyl)pyridine-4-carboxamide]: the IC50 in the series with HBsAg stood at 0.64 µM; in the series with HBeAg, 0.42 µM. In series [1], this compound gave a CC50 at 144 h of more than 100 µM.
